[invAb] = inverted abasic unit; m = 2'-O-methyl; r = 2'-OH (RNA); f = 2'-fluoro
Assays:
rSCNN1A (r ENaCα) mRNA = experiment: Screening of ENaCα siNAs in Rat H-4-II-E cells (quantitative RT-PCR); format: cell-based; parameters: Percent Reduction of the r ENaCα mRNA relative to a non-targeting control siNA (NTCs) / Rat % KD (efficacy of ENaCα mRNA knockdown): concentration or dose not given beside the values; conditions: Rat H-4-II-E cells, n = 3; for Mean (rSCNN1A expression normalized to the level of rGAPDH) / Percent Reduction of the r ENaCα mRNA relative to a non-targeting control siNA (NTCs) / Avg GAPDH Expression (rGAPDH): 24 hours post-transfection; for Avg ENaCα Expression (rSCNN1A): harvested 24 hours post-transfection; for Avg GAPDH Expression (rGAPDH): housekeeping gene used for normalisation
Protocol: (§1) A series of probes and primers were used to detect the various mRNA transcripts of the genes of ENaCa and GAPDH in mouse, rat, and human cell lines. The assays were performed on an ABI 7500 instrument, according to the manufacturer's instructions. Within each experiment, the baseline was set in the exponential phase of the amplification curve, and based on the intersection point of the baselines with the amplification curve, a Ct value was assigned by the instrument. This Ct value was then assigned a QTY value based on the Standard Curve. The standard curve in the various experiments herein used 1 ng to 300 ng of RNA extracted from the same cell line used for the experimental transfections.
(§2) All IC50 values were calculated from the data using GraphPad Prizm software, specifically a sigmoidal, variable slope curve for simple ligand binding. Also, unless otherwise indicated, all calculations of the efficacy and potency (e.g., % knockdown) of the siNAs were done relative to a non-targeting control siNA. If reported, P-values were computed using The Students t-test, including the Welch Correction for unequal variances.
(§3) In all of the calculations of the % knock-down of mRNA, the calculation was made relative to the normalized level of expression of the gene of interest in the samples treated with the non-targeting control (NTC) unless otherwise indicated. The gene of interest expression level was divided by the level of expression of GAPDH or 36B4 (depending on the species) in each sample. The three replicates for each condition in each experiment were averaged and the standard deviation of those samples was calculated. The following formula was then used to calculate the % of knock-down of the gene of interest:
(§4) The ENaCα siNAs were designed and synthesized as described previously. The siNAs were screened in three cell lines. Human A549 cells, mouse NIH 3T3 and Rat H-4-II-E cells. The data from the screen of ENaCa siNAs in all three species is shown in Tables 3a, 3b, 4a, 4b, 5a, and 5b and a summary of the data for certain siNA molecules is presented in Table 6. Each screen was performed at 24 hrs. The decision to use this time point was based upon the degree of knockdown of the mRNA seen at that time point.

mSCNN1A mRNA = experiment: Screening of ENaCα siNAs in mouse NIH 3T3 cells (quantitative RT-PCR); format: cell-based; parameters: Percent Reduction of the mSCNN1A mRNA relative to a non-targeting control siNA / Mouse % KD (efficacy of ENaCα mRNA knockdown): concentration or dose not given beside the values; conditions: mouse NIH 3T3 cells, n = 3; for Mean (mSCNN1A expression normalized to the level of m36B4) / Percent Reduction of the mSCNN1A mRNA relative to a non-targeting control siNA / Avg 36B4 Expression: 24 hours post-transfection; for Avg ENaCα Expression (mSCNN1A): harvested 24 hours post-transfection; for Avg 36B4 Expression: housekeeping gene used for normalisation
Protocol: siNA constructs (Table 1b) may be tested for efficacy in reducing ENaC RNA expression in, for example, A549 human lung carcinoma cells. A549 (human; ATCC cat# CCL-185) cells were cultured at 37° C. in the presence of 5% CO2 and grown in Ham's F12K medium with 2 mM L-glutamine adjusted to contain 1.5 g/L sodium bicarbonate and supplemented with fetal bovine serum at a final concentration of 10% and 100 U/mL penicillin. The A549 cells were plated approximately 24 hours before transfection in 96-well plates at 7,500 cells/well, 100 μl/well. After 24 hours complexes containing siNA and Lipofectamine 2000 (Invitrogen) were created as follows: a solution of Lipofectamine 2000 in OPTI-MEM was prepared containing Lipofectamine 2000 at a final concentration of 14 μg/ml. In parallel, solutions of the siNAs were prepared in OPTI-MEM at a final concentration of 150 nM. After both solutions were incubated at 20° C. for 20 minutes an equal volume of the siNA solutions and the Lipofectamine 2000 solution were added together for each of the siNAs. The resultant solution has the siNAs at a final concentration of 75 nM and Lipofectamine 2000 at a final concentration of 7 μg/ml. This solution was incubated at 20° C. for 20 minutes. After incubation 50 μl of the solution were added to each of the wells (in triplicate). The final concentration of siNA in each well was 25 nM and the final concentration of Lipofectamine 2000 in each well was 2.33 μg/ml. The plates were incubated for 48 hours with no change of media before harvesting. Dose response curves were determined in a similar manner with each concentration being done in triplicate and maintaining a constant amount of Lipofectamine 2000 in each transfection.
as §1, §2, §3, §4

Row | Substance | Mean (rSCNN1A expression normalized to the level of rGAPDH) (rSCNN1A (r ENaCα) mRNA) | Percent Reduction of the r ENaCα mRNA relative to a non-targeting control siNA (NTCs) (rSCNN1A (r ENaCα) mRNA) | Avg ENaCα Expression (rSCNN1A) (rSCNN1A (r ENaCα) mRNA) | Avg GAPDH Expression (rGAPDH) (rSCNN1A (r ENaCα) mRNA) | Mean (mSCNN1A expression normalized to the level of m36B4) (mSCNN1A mRNA) | Percent Reduction of the mSCNN1A mRNA relative to a non-targeting control siNA (mSCNN1A mRNA) | Avg ENaCα Expression (mSCNN1A) (mSCNN1A mRNA) | Avg 36B4 Expression (mSCNN1A mRNA)
1 | B uccuGuccAAccuGGGcAG TTB / CUGcccAGGuuGGAcAGGAUU (sense UCCUGUCCAACCUGGGCAGTT; antisense CUGCCCAGGUUGGACAGGAUU; siRNA; sense: DNA at AGT, 2'-fluoro at CU, [invAb] at 5' end, 3' end, backbone not given here; antisense: sugars from the 5' end rrrfffmmmffmmmfmmmmmm, backbone not given here) [Site 1739] | 1.00 | −8.7% | 32.26 | 35.80 | 0.13 | 7.3% | 2.87 | 22.65
2 | B GGcAGccAGuGGAGccuGu TTB / ACAGGcuccAcuGGcuGccUU (sense GGCAGCCAGUGGAGCCUGUTT; antisense ACAGGCUCCACUGGCUGCCUU; siRNA; sense: DNA at AGT, 2'-fluoro at CU, [invAb] at 5' end, 3' end, backbone not given here; antisense: sugars from the 5' end rrrmmffffmffmmffmffmm, backbone not given here) [Site 1753] | 0.59 | 35.4% | 24.59 | 41.36 | 0.12 | 9.6% | 3.13 | 25.27
3 | B AccuGGGcAGccAGuGGAG TTB / CUCcAcuGGcuGcccAGGuUU (sense ACCUGGGCAGCCAGUGGAGTT; antisense CUCCACUGGCUGCCCAGGUUU; siRNA; sense: DNA at AGT, 2'-fluoro at CU, [invAb] at 5' end, 3' end, backbone not given here; antisense: sugars from the 5' end rrrfmffmmffmfffmmmfmm, backbone not given here) [Site 1748] | 0.60 | 34.7% | 26.11 | 43.45 | 0.15 | −12.7% | 4.06 | 26.15
4 | B GGGcAGccAGuGGAGccuG TTB / CAGGcuccAcuGGcuGcccUU (sense GGGCAGCCAGUGGAGCCUGTT; antisense CAGGCUCCACUGGCUGCCCUU; siRNA; sense: DNA at AGT, 2'-fluoro at CU, [invAb] at 5' end, 3' end, backbone not given here; antisense: sugars from the 5' end rrrmffffmffmmffmfffmm, backbone not given here) [Site 1752] | 0.44 | 52.1% | 19.23 | 43.83 | 0.11 | 19.8% | 3.21 | 29.27

Source: US20110288154A1, “RNA Interference Mediated Inhibition of Epithelial Sodium Channel (ENaC) Gene Expression Using Short Interfering Nucleic Acid (siNA)” (MERCK & CO., INC., priority 2008, published 2011)
